The numbers were not newly measured in patent US6310247A, “7-aryl-6(Z)-heptatrienoic acid retinamides” (Hoffmann-LA Roche Inc., priority 1999, dated 2001), which cites them from elsewhere.

One data set relates to tumor cells. The conditions noted are these: cited from earlier work.
The test system of data set [1] is ER+ and ER- breast carcinoma cells. As to conditions: cited from earlier work.
The subject of another data set is tumors. As to conditions: cited from earlier work.
The conditions of data set [2]: cited from earlier work.

Entries after “also recorded” stand apart in the source; their conditions may differ.

As to `CC1=C(/C=C/C(C)=C/C=C/C(C)=C/C(=O)Nc2ccc(O)cc2)C(C)(C)CCC1` [4-HPR, all trans 4-hydroxyphenyl retinamide], the “Induction of apoptosis in retinoid-resistant cells (in words)” value in the data set on tumor cells (cells resistant to retinoids that activate RARs efficiently) is on record as “effective in inducing apoptosis”. Moreover, the “Growth inhibition and apoptosis in other tumor cell types (in words)” value with tumor cells (including lung carcinoma cell and hematopoetic malignancies) is “inhibit cell growth and to induce apoptosis”. Moreover, in data set [1], the “Growth inhibition and apoptosis in breast carcinoma cells (in words)” value is “capable of inhibiting cell growth and inducing apoptosis; also recorded: appears to induce apoptosis and cause inhibition of cell growth”. The “Chemopreventative activity (in words)” value in the data set with tumors (against a number of malignancies) was “potent chemopreventative agent”. Also, in the data set with tumors (in vivo), the “Tumor regression (in words)” value was “capable of tumor regression in vivo”. For the same molecule, in the data set with tumors (via apoptosis), the “Effect on tumor formation and tumor growth (in words)” value is “inhibit tumor formation and tumor growth via apoptosis”. Also, in data set [2], the “Major toxicity seen in the clinic” value is given as “night vision impairment”.
